Read-outs that look alike come from different tables or passages of the source.
Key:
[1] = target: T1, FLT3 kinase (Homo sapiens, UniProt P36888); experiment: Mechanism of inhibition (pre-incubation time and ATP concentration), FLT3; type: biochemical
T1 construct: purchased Invitrogen
T1 sequence (P36888 27-993): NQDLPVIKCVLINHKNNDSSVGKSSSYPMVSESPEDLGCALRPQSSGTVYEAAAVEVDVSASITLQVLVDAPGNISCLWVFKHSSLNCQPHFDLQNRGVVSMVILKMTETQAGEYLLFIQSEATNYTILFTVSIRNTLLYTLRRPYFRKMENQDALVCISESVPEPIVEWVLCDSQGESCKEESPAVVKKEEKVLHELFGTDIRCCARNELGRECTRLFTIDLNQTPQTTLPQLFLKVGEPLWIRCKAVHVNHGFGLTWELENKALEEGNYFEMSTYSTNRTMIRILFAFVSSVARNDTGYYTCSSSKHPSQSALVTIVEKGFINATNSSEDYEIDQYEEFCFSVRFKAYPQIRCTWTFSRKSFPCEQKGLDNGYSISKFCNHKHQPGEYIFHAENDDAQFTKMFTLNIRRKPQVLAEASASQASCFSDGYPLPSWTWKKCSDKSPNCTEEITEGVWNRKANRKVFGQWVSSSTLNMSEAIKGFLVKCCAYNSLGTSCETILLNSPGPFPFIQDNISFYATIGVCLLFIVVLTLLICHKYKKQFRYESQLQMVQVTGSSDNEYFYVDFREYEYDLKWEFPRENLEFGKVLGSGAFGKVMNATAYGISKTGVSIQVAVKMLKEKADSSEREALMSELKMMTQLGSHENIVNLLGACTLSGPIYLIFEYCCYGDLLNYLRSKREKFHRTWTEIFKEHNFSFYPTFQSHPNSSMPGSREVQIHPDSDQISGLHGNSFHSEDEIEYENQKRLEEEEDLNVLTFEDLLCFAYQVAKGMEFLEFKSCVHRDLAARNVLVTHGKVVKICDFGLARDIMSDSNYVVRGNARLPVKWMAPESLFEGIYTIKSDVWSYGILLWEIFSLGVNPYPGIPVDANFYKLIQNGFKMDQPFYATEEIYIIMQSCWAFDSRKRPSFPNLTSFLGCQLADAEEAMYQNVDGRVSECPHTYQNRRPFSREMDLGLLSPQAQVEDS
Description: Compound 13a was pre-incubated with the FLT3 kinase at 1, 3, 5, 10, 20, 30, 50, and 90 minutes. After the pre-incubation, IC50 values at each incubation interval was determined according to the procedure outlined in section 4.3. In a separate experiment, compound 13a was pre-incubated with the FLT3 kinase for 60 minutes. […] To determine IC50 values at each concentration of ATP, the same procedure was followed as outlined in section S10.
S10. Biochemical Inhibition Assay:1,2 Kinase activity was measured in a microfluidics assay that monitors the separation of a phosphorylated product from substrate. The assay was run using a 12-sipper chip on a Caliper EZ Reader II (PerkinElmer®, Walthman, USA) with separation buffer (100 mM HEPES, 10 mM EDTA, 0.015% Brij-35, 0.1% CR-3 [PerkinElmer®, Walthman, USA]). In 96-well polypropylene plates (Greiner, Frickenhausen, Germany) compound stocks (20 mM in DMSO) were diluted into kinase buffer (50 mM HEPES, 0.075% […]
dilutions (2 mM–6.32 nM). After, 1 μL was transferred into a 384-well polypropylene assay plate (Greiner, Frickenhausen, Germany). The FLT3 enzyme (Invitrogen™, Grand Island, USA) was diluted in kinase buffer to a concentration of 2 nM and 5 µL of the enzyme mixture was transferred to the assay plate. The inhibitors/FLT3 enzyme were incubated for 60 minutes with minor shaking. A substrate mix was prepared containing ATP (Ambresco®, Solon, USA) and 5FAM tagged FLT3 peptide (peptide #22, 5’ FAM-EPLYWSFPA, PerkinElmer®, Walthman, USA) dissolved in kinase buffer, and 5 µL of the substrate mix was added to the assay plate.
Running concentrations were as follows: ATP (190 µM), peptide (1.5 µM), compound 12-point ½log dilutions (0.2 mM–0.632 nM). For positive control, no inhibitor was added. For negative control, no enzyme was added. For running control, quizartinib was utilized. The plate was run until 10-20% conversion based on the positive control wells. The following separation conditions were utilized: upstream voltage -500V; downstream voltage, -1900V; chip pressure - 0.8. Percent inhibition was measured for each well comparing starting peptide to phosphorylated product peaks relative to the baseline. Dose response curves, spanning the IC50 dose, were generated in GraphPad Prisim 6 and fit to an exponential one-phase decay line and IC50 values were obtained from the half-life value of the curve. IC50 values were generated in duplicate and error was calculated from the standard deviation between values.
S11. Mechanism of Inhibition Procedure: Compound 13a was pre-incubated with the FLT3 kinase at 1, 3, 5, 10, 20, 30, 50, and 90 minutes. After the pre -incubation, IC50 values at each incubation interval was determined according to the procedure outlined in section 4.3. […]

[2] = target: c-KIT (Homo sapiens, UniProt P10721); experiment: Biochemical kinase selectivity assay, c-KIT
[3] = tested on: FLT3-driven cell lines; experiment: Cell-based studies, FLT3-driven cell lines overall; settings: range over the FLT3 cell lines
Text: Stable BaF3 populations expressing activated FLT3 were generated by retroviral spinfection with the appropriate mutated plasmid followed by selection and growth factor withdrawal as previously described. The BaF3 cell line was originally obtained from the laboratory of Charles Sawyers and has not been authenticated. MV411 and Molm14 cells were obtained from the laboratory of Scott Kogan and authenticated by Promega STR analysis in June 2013. All cell lines were mycoplasma-free. Cells were incubated with compounds for 48 hours and proliferation was assessed using CellTiter-Glo (Promega; Madison, WI) according to the manufacturer’s recommendation on a SpectraMax M3 microplate reader using SpectraMax Software (Molecular Devices; Sunnyvale, CA). All cell viability data shown is reflective of experiments performed a minimum of three times. […]
S13. […]
2013. […] Cells were incubated with compounds for 48 hours and proliferation was assessed using CellTiter -Glo (Promega; Madison, WI) according to the manufacturer’s recommendation on a SpectraMax M3 microplate reader using SpectraMax Software (Molecular Devices; Sunnyvale, CA). […]

Sequence of c-KIT (P10721 26-976): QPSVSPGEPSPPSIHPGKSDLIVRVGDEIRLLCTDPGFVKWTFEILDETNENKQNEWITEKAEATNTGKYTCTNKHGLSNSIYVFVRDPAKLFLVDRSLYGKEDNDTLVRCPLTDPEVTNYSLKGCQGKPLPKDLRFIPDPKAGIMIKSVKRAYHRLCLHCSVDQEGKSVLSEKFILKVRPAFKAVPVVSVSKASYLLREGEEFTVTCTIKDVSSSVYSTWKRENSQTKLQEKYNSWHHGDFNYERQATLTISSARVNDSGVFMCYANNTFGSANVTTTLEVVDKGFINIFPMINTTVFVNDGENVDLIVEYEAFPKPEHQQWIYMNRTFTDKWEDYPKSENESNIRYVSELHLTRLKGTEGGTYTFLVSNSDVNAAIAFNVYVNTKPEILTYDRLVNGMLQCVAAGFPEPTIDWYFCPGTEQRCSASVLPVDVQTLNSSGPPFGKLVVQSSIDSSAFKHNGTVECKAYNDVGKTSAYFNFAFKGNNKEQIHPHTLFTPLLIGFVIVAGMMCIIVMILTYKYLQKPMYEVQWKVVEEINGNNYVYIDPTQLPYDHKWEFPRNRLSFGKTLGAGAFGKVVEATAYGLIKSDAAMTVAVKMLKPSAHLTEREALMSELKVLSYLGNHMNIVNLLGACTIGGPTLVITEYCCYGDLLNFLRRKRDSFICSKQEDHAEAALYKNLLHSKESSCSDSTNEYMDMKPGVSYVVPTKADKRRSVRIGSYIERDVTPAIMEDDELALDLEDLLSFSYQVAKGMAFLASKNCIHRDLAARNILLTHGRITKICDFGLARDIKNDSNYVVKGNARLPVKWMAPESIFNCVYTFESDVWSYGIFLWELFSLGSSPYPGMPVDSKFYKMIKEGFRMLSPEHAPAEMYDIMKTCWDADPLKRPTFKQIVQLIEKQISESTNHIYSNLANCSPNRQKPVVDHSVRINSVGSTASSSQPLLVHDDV

change of FLT3 IC50 from no incubation to a 90-minute pre-incubation ([1]; p < 0.05): statistically significant decrease | pre-incubation required to reach maximal inhibition of the FLT3 kinase ([1]; pre-incubation 1-90 minutes): approximately 60 minutes | IC50 ([2]; as printed in Fig. 2, read-out: cKit IC50): 8800 nM | IC50 ([2]; in vitro kinase assay, read-out: c-KIT IC50 (nM) ± SD): 8800 nM | selectivity for FLT3 over c-KIT ([2]; in vitro kinase assays): > 500 fold
Structure (SMILES): Cn1nc(C(C)(C)C)cc1NC(=O)Cc1ccc(Nc2cc(Nc3ccc(S(C)(=O)=O)cc3)ncn2)cc1 [13a, 2-(4-(6-(4-(Methylsulfonyl)phenylamino)pyrimidin-4-ylamino)phenyl)-N-(3-tert-butyl-1-methyl-1H-pyrazol-5-yl)acetamide]
effect of an increase in ATP concentration on FLT3 IC50 ([1]; 5-160 µM ATP, 60 minutes pre-incubation, p > 0.05): did not cause a statistically significant increase | mechanism of inhibition ([1]; from pre-incubation and ATP variation studies): non-competitive, Type-II kinase inhibitor | GI50 [3]: 0.009 to 2 µM
